Source: patent US7588906B2, “Hydrogels for biomolecule analysis and corresponding method to analyze biomolecules” (Wisconsin Alumni Research Foundation, priority 2004, dated 2009)
Where two headings read alike, the source gives them in different places. One block for each molecule: values may come before it. Ends that are not written are not given here.

Experiments:
[1] = target: T1, Bcr-Abl (K562 cell lysate) (Homo sapiens, UniProt P00519); assay: Array-based K562 cell lysate kinase assay on GST-Crkl substrates immobilized in polyacrylamide hydrogels, ECL phosphotyrosine detection; format: biochemical; settings: for Inhibition of Bcr-Abl activity over the range studied / Inhibition of Bcr-Abl activity at 100 μM / Inhibition of Bcr-Abl activity at 1 mM: GST-Crkl (SH3), 2 h; for Inhibition of Bcr-Abl activity over the range studied: 100 nM to 1 mM inhibitor; for IC50: GST-Crkl (SH3) 165 ng/mm^2, 2 h, inhibitor 100 nM to 1 mM, read-out: IC50 for inhibition of Bcr-Abl activity, inhibitor screen; for Inhibition of Bcr-Abl activity at 100 μM: 100 μM inhibitor; for Inhibition of Bcr-Abl activity at 1 mM: 1 mM inhibitor
T1 construct: Source of Bcr-Abl tyrosine kinase: K562 cells (American Type Culture Collection, Manassas, Va.); endogenous in cells; host or cells: K562 cells (ATCC), clarified total cell lysate; the other entry of the earlier key: BCR (P11274, Breakpoint cluster region protein)
T1 sequence (P00519 with tags, fused parts or gaps): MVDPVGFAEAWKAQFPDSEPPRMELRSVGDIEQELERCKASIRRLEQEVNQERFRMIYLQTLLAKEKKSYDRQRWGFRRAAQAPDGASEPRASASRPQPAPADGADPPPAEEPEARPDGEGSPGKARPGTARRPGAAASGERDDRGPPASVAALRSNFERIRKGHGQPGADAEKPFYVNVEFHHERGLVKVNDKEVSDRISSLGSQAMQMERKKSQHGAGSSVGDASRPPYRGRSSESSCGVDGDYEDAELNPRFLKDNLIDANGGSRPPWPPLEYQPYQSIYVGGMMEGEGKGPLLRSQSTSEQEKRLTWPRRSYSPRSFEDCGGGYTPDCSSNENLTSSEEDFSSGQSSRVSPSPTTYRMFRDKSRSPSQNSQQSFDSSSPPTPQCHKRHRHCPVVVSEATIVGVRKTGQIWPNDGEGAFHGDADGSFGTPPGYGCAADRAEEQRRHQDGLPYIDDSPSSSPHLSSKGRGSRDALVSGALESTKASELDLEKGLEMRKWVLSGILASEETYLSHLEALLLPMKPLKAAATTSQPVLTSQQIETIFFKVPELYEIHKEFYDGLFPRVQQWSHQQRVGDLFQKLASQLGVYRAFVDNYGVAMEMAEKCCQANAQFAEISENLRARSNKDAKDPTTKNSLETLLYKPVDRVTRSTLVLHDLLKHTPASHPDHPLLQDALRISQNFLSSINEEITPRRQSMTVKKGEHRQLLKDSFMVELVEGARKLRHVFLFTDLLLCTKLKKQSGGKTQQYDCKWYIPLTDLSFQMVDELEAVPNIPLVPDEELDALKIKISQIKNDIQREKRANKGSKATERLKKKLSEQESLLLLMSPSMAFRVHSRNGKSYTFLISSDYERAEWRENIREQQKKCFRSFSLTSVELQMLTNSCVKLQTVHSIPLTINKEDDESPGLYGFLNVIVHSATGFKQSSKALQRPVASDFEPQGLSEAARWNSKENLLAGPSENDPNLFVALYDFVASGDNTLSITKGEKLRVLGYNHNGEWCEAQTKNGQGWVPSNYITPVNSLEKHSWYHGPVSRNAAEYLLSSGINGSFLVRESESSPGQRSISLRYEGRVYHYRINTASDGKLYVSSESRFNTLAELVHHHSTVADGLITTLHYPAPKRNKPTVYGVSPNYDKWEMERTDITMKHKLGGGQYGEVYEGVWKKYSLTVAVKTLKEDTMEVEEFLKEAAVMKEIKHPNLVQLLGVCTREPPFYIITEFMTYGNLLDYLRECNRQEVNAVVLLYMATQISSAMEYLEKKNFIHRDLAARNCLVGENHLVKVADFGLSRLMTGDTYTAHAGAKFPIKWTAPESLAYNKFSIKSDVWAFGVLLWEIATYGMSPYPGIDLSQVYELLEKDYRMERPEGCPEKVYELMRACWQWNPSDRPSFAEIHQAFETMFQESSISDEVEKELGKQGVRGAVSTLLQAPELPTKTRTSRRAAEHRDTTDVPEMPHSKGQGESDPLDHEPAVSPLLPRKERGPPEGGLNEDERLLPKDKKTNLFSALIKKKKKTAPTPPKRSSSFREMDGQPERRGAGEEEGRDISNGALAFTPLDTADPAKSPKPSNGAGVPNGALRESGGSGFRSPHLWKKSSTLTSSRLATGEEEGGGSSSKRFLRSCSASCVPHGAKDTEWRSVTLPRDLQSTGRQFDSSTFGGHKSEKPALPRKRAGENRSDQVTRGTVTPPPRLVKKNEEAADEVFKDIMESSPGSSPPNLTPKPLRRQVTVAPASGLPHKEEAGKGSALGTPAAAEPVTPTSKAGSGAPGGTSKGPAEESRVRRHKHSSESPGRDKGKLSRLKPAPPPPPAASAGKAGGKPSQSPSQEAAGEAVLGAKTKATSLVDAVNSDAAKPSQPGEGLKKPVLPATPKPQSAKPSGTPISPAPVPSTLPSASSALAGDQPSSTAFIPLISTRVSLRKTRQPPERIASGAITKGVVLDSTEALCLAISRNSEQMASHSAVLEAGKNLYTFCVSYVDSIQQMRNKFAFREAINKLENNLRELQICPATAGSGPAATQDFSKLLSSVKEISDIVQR
Procedure: Preparation of K562 and HL60 Cell Lysates: K562 and HL60 cells (ATCC, Manassas, Va.) were cultured at 37° C. and 5% CO2 in RPMI-1640 media (Cambrex Bio Science, Walkersville, Md.) containing 100 units/ml penicillin, 100 μg/ml streptomycin, and 10% FBS. For lysis, cells were resuspended at 5×10^7 cells/ml in lysis buffer (42.3 mM HEPES, 126 mM NaCl, 1.27 mM MgCl2, 0.85 mM EDTA, 84.5 mM NaF, 8.45 mM sodium pyrophosphate, 0.169 mM sodium orthovanadate, 1 mM PMSF, 0.95% Triton X-100, 9.5% glycerol, 4% 25× complete protease inhibitor, pH 7.4) and incubated on ice for 20 min. The total cell lysate was then clarified by spinning at 1500 rpm for 10 min. Total protein concentration was determined via a Pierce BCA protein assay kit (Pierce, Rockford, Ill.) and cell lysates were stored at −80° C. until further use.
Fabrication of Protein Arrays: Glass slides were acrylic-functionalized and GST-Crkl fusion proteins were acrylic-labeled as described in the previous Examples. Briefly, fusion proteins were labeled on primary amines by reaction with 6-((acrylo)amino) hexanoic acid, succinimidyl ester (Molecular Probes, Eugene, Oreg.) and clean glass slides were functionalized via reaction with (3-acryloxypropyl)-trimethoxysilane (Gelest, Tullytown, Pa.).
Following functionalization of the glass slides, a thin layer of 18.8% polyacrylamide gel was attached to the glass surface. Forty μl of a mixture containing 125 μl 1.5 M Tris, pH 8.8; 285 μl 33% acrylamide mix (0.86 g N,N′-methylenebisacrylamide (Bis) and 32.14 g acrylamide in a total volume of 100 ml); 5 μl 10% ammonium persulfate (APS); 75 μl 100% glycerol; 0.5 μl N,N,N′,N′-tetramethylethylenediamine (TEMED); and 9.5 μl water was sandwiched between an acrylic-functionalized glass slide and a clean glass plate and allowed to polymerize in a N2 environment at room temperature for 30 min. The glass plate was then removed and 1 μl protein spots were polymerized on top of the 18.8% acrylamide base layer from the following mixture: 6.25 μl 1.5 M Tris, pH 8.8; 3 μl 33% acrylamide mix; 0.5 μl 10% APS; 3.75 μl 100% glycerol; 0.1 μl TEMED; 0 to 7.5 μl acrylic-labeled GST-Crkl protein solution; and water to a total volume of 25 μl. Additionally, 3 μl spacer spots of the above mixture without protein were added on the exterior corners of the protein array for the subsequent creation of a reaction chamber as described below. After attachment of the protein-acrylamide copolymer spots the slides were washed by briefly dipping into approximately 250 ml of TBST (10 mM Tris-HCl, 100 mM NaCl, 0.1% Tween-20, pH 7.5) followed by a 15 minute and two 5 minute washes with slight agitation in approximately 20 ml of TBST. Slides were then washed by briefly dipping into approximately 250 ml of water followed by two 5 minute washes with slight agitation in approximately 20 ml of water, before being stored overnight at 4° C. in Abl kinase assay buffer (50 mM Tris-HCl, 10 mM MgCl2, 100 μM EDTA, 1 mM DTT, 0.015% Brij 35, 100 μg/ml BSA, pH 7.5).
Array-Based Kinase Assays: Just prior to the kinase assay, the glass slides were removed from the Abl kinase assay buffer and dried under a stream of compressed air. Careful attention was paid to make sure that only the bare portions of the slide were dried and the polyacrylamide spots and polyacrylamide base layer remained hydrated. Using the 3 μl spacer spots, a reaction chamber was then created by suspending a clean glass slide over top of the 1 μl protein-acrylamide copolymer hydrogel spots. […] Aliquots (250 μl) of these kinase reaction mixtures were then applied to each reaction chamber and the reactions allowed to proceed for 30 min to 5 h at 30° C. in a saturated environment. After the reaction, the glass slide used to create the reaction chamber was removed and the protein array was washed by briefly dipping into approximately 250 ml TBST followed by a 15 minute and two 5 minute washes with slight agitation in approximately 20 ml of TBST.

[2] = tested on: Chronic Myeloid Leukemia (CML); settings: cited from earlier work
[3] = target: T2, protein-tyrosine kinase p60c-src (Homo sapiens, UniProt P12931); assay: Solution kinase assay, phosphorylation of GST-[…]; format: biochemical; settings: solution reaction, Lineweaver-Burk plot
T2 construct: purchased Calbiochem, San Diego, Calif
Procedure: Solution protein kinase assays with protein-tyrosine kinase p60^c-src (Calbiochem, San Diego, Calif.) were carried out according to the manufacture's instructions. Briefly, reaction mixtures containing 1.5 μl of 50% glycerol, 1.5 μl of ATP mix (0.15 mM ATP, 30 mM MgCl2), 0.3 units of p60^c-src in 1.5 μl kinase dilution buffer (50 mM HEPES, 0.1 mM EDTA, 0.015% Brij 35, 0.1 mg/ml BSA, 0.2% β-mercaptoethanol, pH 7.5), and 1 μl GST-[…] (SEQ. ID. NO: 1) solution (50 mM HEPES, 0.1 mM EDTA, 0.015% Brij 35, pH 7.5 containing anywhere from 0 to 600 ng of GST-[…]) were incubated at 37° C. for times ranging from 10 minutes to 5.5 hours. After each kinase reaction the samples were mixed with 94.5 μl of TBS (10 mM Tris-HCl, 100 mM NaCl, pH 7.5) containing 1% SDS and heated to 97° C. for 5 minutes. Upon cooling, the samples were transferred to a nitrocellulose membrane using a Dot Blot apparatus (Biorad, Hercules, Calif.) following the manufacture's instructions. Prior to assembly of the Dot Blot apparatus, the membrane was wetted in TBS for 10 minutes. The apparatus was then assembled and each well was washed twice with 100 μl of TBS. 50 μl of the kinase reaction product was applied to each well. After application of the reaction mixture the wells were washed twice with 200 μl of TBS containing 0.05% Tween-20. […]

[4] = target: T2, protein-tyrosine kinase p60c-src; assay: Surface kinase assay, phosphorylation of hydrogel-immobilized GST-[…]; format: biochemical
Procedure: Surface protein kinase assays were carried out in a fashion similar to the solution kinase assays. Glass slides containing 0 to 600 ng of GST-[…] (SEQ. ID. NO: 1) per 1 μl polyacrylamide spot were prepared as above and stored overnight in kinase assay buffer (50 mM HEPES, 0.1 mM EDTA, 0.015% Brij 35, pH 7.5) at 4° C. Just prior to the kinase assay, these slides were dried under a stream of compressed air. […] The protein kinase reaction mixture containing 1.5 μl of 50% glycerol, 1.5 μl of ATP mix, and 0.3 units of p60^c-src in 1.5 μl of kinase dilution buffer was placed on top of each polyacrylamide spot and the slides were incubated in a humidity chamber at 37° C. for 10 minutes to 5.5 hours.
In the case of phosphotyrosine detection, a similar procedure was followed with the substitution of TBST for PBST as the buffer and BSA for milk as the blocking agent. These substitutions were required to reduce the nonspecific binding of the secondary antibody used in this detection scheme. […] The slides were then stored in TBST until detection.
In the case of the nitrocellulose membranes, 20 ml of ECL detection reagent was used per membrane.

v-Abl tyrosine kinase = target: T3, v-Abl tyrosine kinase (Abelson murine leukemia virus, UniProt P00521); assay: v-Abl phosphorylation of hydrogel-immobilized Abl peptide, MALDI mass spectrometry detection; format: biochemical; settings: 3 hours, 30° C., estimated from MALDI spectrum FIG. 24B
T3 sequence (P00521 1-746): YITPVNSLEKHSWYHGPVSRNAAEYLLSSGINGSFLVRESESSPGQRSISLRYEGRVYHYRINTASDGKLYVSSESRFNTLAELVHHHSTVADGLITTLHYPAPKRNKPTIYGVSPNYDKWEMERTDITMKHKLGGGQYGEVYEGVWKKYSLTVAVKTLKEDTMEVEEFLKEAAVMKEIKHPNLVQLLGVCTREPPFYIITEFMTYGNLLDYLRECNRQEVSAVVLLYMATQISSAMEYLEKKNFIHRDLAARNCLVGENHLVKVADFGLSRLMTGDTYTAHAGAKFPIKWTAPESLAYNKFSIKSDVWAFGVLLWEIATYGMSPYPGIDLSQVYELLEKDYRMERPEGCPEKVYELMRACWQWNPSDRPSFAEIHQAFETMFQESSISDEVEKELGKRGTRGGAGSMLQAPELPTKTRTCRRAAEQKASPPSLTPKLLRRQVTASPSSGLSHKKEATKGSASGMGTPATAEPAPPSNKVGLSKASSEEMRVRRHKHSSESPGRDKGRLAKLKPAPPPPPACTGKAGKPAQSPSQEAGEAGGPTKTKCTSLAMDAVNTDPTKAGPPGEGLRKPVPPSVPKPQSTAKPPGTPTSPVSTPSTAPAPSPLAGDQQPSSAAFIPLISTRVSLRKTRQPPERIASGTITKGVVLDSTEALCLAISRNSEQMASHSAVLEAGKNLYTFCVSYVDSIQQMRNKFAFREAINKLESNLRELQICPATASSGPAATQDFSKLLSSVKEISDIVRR
Text: The acrylic-labeled peptides were then incorporated into peptide-acrylamide copolymer hydrogels as described in the previous examples. Briefly recapping, individual peptide acrylamide copolymer hydrogel spots were attached to stainless steal MALDI target plates (16) (Applied Biosystems, Foster, Calif.) and acrylic-functionalized glass slides.
The peptide-acrylamide copolymer hydrogels were then subjected to enzyme-mediated phosphorylation reactions. Substrates containing peptide-acrylamide copolymer hydrogels were washed by sonication in approximately 20 ml of H2O for 10 mm and dried under compressed air. The substrates were then reconstituted in a v-Abl reaction mixture and incubated at 30° C. in a saturated environment for 3 hours. […] Following the phosphorylation reaction, the solid substrates were sonicated twice in approximately 20 ml of H2O for 10 mm and dried under compressed air.
After the phosphorylation reactions, the copolymer hydrogels were subjected to MALDI mass spectrometry analysis. Stainless steel MALDI target plates and glass slides containing peptide-acrylamide copolymer hydrogels were analyzed on an ABI Voyager 4700 MALDI-TOF/TOF mass spectrometer (Applied Biosystems). […] The samples were then analyzed in linear positive, linear negative, reflector positive, and reflector negative modes to detect the phosphorylated samples.

Inhibition of Bcr-Abl activity over the range studied [1]: do not inhibit
Molecule: N#C/C(=C/c1ccc(O)c(O)c1)C(=O)NCc1ccccc1 [AG490]

Inhibition of Bcr-Abl activity over the range studied [1]: do not inhibit
Molecule: COc1cc2ncc(-c3ccccc3)nc2cc1OC [AG1296]

IC50 [1]: ~100 µM
Inhibition of Bcr-Abl activity at 100 μM [1]: Significant inhibition
Inhibition of Bcr-Abl activity at 100 μM ([1]; listed as AG 1478): slight inhibition
Inhibition of Bcr-Abl activity at 1 mM [1]: Significant inhibition
Molecule: COc1cc2ncnc(Nc3cccc(Cl)c3)c2cc1OC [AG1478]

Molecule: Cc1ccc(NC(=O)c2ccc(CN3CCN(C)CC3)cc2)cc1Nc1nccc(-c2cccnc2)n1 [Glivec]
Complete cytogenetic remission ([2]; CML patients): 41 % of patients
Side effects ([2]; CML patients): much milder side effects

IC50 [1]: ~100 µM
Inhibition of Bcr-Abl activity at 100 μM [1]: Significant inhibition
Inhibition of Bcr-Abl activity at 100 μM ([1]; listed as PKI 166): slight inhibition
Inhibition of Bcr-Abl activity at 1 mM [1]: Significant inhibition
Molecule: C[C@@H](Nc1ncnc2[nH]c(-c3ccc(O)cc3)cc12)c1ccccc1 [PKI166]

Molecule: GST-EEEIYGEFE: GST-peptide fusion (SEQ. ID. NO: 1) carrying the consensus sequence for c-Src tyrosine phosphorylation ({GST}-EEEIYGEFE)
Vmax, phosphorylation by c-Src in solution [3]: 8.1±3.1 arbitrary units
Km ([3]; read-out: Km, phosphorylation by c-Src in solution): 2700 ± 1000 nM
Vmax, phosphorylation by c-Src of surface-immobilized substrate ([4]; surface reaction, polyacrylamide hydrogel spot, Lineweaver-Burk plot): 9.7±0.63 arbitrary units
Km ([4]; surface reaction, polyacrylamide hydrogel spot, Lineweaver-Burk plot, read-out: Km, phosphorylation by c-Src of surface-immobilized substrate): 360 ± 33 nM
Km of surface reaction lower than in solution ([4]; surface vs. solution): approximately 10 fold

Molecule: H-EAIYAAPFAKKK-OH [Abl peptide]
Extent of phosphorylation (v-Abl tyrosine kinase): approximately 90%

Molecule: α-interferon
Survival as compared to conventional chemotherapy ([2]; CML patients): prolong survival by about a year
Side effects ([2]; human, in vivo): significant side effects
